Read-outs that look alike come from different tables or passages of the source.
Assays:
Assay type in all cases: biochemical
OXA-48 = OXA-48 (Klebsiella pneumoniae, UniProt Q6XEC0); assay: Inhibitory activity on SBL, fluorescent substrate FC-5; details: for inhibitory activity on OXA-48 compared to avibactam: comparison in words; for IC50: read-out: Inhibitory activity on SBL OXA-48 (IC50 class)
VIM-1 = VIM-1 (Pseudomonas aeruginosa, UniProt A0A0F7KYQ8); assay: Inhibitory activity on MBL, fluorescent substrate FC-5
KPC-2 = KPC-2 (Klebsiella pneumoniae, UniProt Q9F663); assay: Inhibitory activity on SBL, fluorescent substrate FC-5; details: for inhibitory activity on KPC-2 compared to avibactam: comparison in words; for IC50: read-out: Inhibitory activity on SBL KPC-2 (IC50 class)
CTX-M-14 = CTX-M-14 (Escherichia coli, UniProt Q9L5C7); assay: as above; details: for inhibitory activity on CTX-M-14 compared to avibactam: comparison in words; for IC50: read-out: Inhibitory activity on SBL CTX-M-14 (IC50 class)
NDM-1 = NDM-1 (Klebsiella pneumoniae, UniProt C7C422); assay: Inhibitory activity on MBL, fluorescent substrate FC-5
VIM-2 = VIM-2 (Escherichia coli, UniProt Q5U7L7); assay: as above
TEM-1 = TEM-1 (Escherichia coli, UniProt P62593); assay: Inhibitory activity on SBL, fluorescent substrate FC-5; details: for inhibitory activity on TEM-1 compared to avibactam: comparison in words; for IC50: read-out: Inhibitory activity on SBL TEM-1 (IC50 class)
IMP-1 = IMP-1 (Serratia marcescens, UniProt P52699); assay: Inhibitory activity on MBL, fluorescent substrate FC-5
NDM-5 = NDM-5 (Klebsiella pneumoniae, UniProt C7C422, M154L/V88L); assay: as above
[1] = VIM-1 and/or VIM-2, read-out: inhibitory activity at a nanomolar-level on VIM-1 and/or VIM-2
[2] = read-out: Inhibitory activity on MBL VIM-1 (IC50 class)
[3] = read-out: Inhibitory activity on MBL NDM-1 (IC50 class)
[4] = read-out: inhibitory activity at a nanomolar-level on NDM-1
[5] = read-out: Inhibitory activity on MBL VIM-2 (IC50 class)
[6] = IMP-1 and/or IMP-4, read-out: inhibitory activity at a nanomolar-level on IMP-1 and/or IMP-4
[7] = read-out: Inhibitory activity on MBL IMP-1 (IC50 class)
[8] = read-out: Inhibitory activity on MBL NDM-5 (IC50 class)
[9] = read-out: inhibitory activity at a nanomolar-level on NDM-5

Sequence of KPC-2 (Q9F663 25-293 limits assumed): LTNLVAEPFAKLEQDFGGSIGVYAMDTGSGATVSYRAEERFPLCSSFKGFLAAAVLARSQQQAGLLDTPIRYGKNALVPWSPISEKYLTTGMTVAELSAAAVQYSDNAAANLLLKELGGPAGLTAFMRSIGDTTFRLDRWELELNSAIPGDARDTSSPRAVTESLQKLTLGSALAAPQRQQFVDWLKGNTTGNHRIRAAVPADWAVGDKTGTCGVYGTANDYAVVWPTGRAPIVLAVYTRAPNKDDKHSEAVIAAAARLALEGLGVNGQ
Sequence of TEM-1 (P62593 24-286 limits assumed): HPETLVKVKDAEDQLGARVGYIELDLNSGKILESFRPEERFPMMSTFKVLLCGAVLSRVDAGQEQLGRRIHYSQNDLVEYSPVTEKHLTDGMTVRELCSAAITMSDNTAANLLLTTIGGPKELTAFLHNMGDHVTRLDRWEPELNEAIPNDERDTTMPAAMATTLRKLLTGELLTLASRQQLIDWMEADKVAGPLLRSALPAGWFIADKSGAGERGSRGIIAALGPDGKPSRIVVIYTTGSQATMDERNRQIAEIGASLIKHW
Sequence of OXA-48 (Q6XEC0 23-265 limits assumed): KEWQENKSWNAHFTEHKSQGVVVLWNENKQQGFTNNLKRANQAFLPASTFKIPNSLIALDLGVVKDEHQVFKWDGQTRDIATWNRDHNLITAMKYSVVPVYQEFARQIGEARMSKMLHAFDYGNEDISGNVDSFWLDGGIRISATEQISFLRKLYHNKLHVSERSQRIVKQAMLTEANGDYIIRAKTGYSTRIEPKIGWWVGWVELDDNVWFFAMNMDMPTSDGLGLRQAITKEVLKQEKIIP
Sequence of CTX-M-14 (Q9L5C7 entry or part of it): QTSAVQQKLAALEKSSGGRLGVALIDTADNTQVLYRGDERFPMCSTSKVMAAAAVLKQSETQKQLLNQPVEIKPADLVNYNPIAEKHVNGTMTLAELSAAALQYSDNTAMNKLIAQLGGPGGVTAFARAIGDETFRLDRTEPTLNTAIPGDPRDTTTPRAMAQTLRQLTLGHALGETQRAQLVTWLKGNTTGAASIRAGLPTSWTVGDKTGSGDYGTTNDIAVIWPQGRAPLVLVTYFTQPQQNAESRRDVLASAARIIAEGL
Sequence of NDM-5 (C7C422 29-270 V88L/M154L): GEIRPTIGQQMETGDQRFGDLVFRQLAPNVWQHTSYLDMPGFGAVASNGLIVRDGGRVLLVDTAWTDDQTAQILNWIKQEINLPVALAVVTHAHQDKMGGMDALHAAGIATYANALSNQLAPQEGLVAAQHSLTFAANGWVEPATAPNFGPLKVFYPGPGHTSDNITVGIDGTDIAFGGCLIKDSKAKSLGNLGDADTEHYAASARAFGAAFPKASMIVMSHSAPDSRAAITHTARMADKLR
Sequence of IMP-1 (P52699 19-246 limits assumed): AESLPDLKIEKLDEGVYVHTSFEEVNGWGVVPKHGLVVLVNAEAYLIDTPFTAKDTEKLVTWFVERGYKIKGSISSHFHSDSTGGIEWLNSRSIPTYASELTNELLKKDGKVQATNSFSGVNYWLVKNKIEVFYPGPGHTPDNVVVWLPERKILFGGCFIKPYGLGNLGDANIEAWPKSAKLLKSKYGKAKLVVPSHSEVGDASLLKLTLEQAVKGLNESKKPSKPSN
Sequence of NDM-1 (C7C422 29-270 limits assumed): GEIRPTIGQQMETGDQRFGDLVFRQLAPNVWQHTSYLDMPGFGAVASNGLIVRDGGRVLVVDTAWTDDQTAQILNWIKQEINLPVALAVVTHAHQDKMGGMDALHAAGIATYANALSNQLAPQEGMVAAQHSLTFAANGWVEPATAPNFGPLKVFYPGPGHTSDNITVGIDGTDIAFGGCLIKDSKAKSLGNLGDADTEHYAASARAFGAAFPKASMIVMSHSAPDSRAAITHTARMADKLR

SMILES | inhibitory activity on OXA-48 compared to avibactam (OXA-48) | IC50 (OXA-48) | IC50 (VIM-1; [1]) | IC50 (VIM-1; [2]) | inhibitory activity on KPC-2 compared to avibactam (KPC-2) | IC50 (KPC-2) | inhibitory activity on CTX-M-14 compared to avibactam (CTX-M-14) | IC50 (CTX-M-14) | IC50 (NDM-1; [3]) | IC50 (NDM-1; [4]) | IC50 (VIM-2; [5]) | inhibitory activity on TEM-1 compared to avibactam (TEM-1) | IC50 (TEM-1) | IC50 (IMP-1; [6]) | IC50 (IMP-1; [7]) | IC50 (NDM-5; [8]) | IC50 (NDM-5; [9]) | IC50 (VIM-2; read-out: inhibitory activity on VIM-2)
Nc1ncc(-c2cn(Cc3ccc4c(c3C(=O)O)OB(O)CC4)nn2)cn1 [Compound 61] | better or comparable | < 10 nM | < 1000 nM | 10 to 1000 nM | better or comparable | < 10 nM | better or comparable | 10 to 1000 nM | 10 to 1000 nM | < 1000 nM | 10 to 1000 nM | better or comparable | 10 to 1000 nM | < 1000 nM | 10 to 1000 nM | 10 to 1000 nM | < 1000 nM | –
Nc1ccc(-c2cn(Cc3ccc4c(c3C(=O)O)OB(O)CC4)nn2)cn1 [Compound 60] | better or comparable | < 10 nM | < 1000 nM | 10 to 1000 nM | better or comparable | < 10 nM | better or comparable | 10 to 1000 nM | 10 to 1000 nM | < 1000 nM | 10 to 1000 nM | better or comparable | 10 to 1000 nM | < 1000 nM | 10 to 1000 nM | 10 to 1000 nM | < 1000 nM | –
NCc1cn(Cc2ccc3c(c2C(=O)O)OB(O)CC3)nn1 [Compound 7] | – | 10 to 1000 nM | – | 1000 to 100000 nM | – | 10 to 1000 nM | – | 10 to 1000 nM | 1000 to 100000 nM | – | 1000 to 100000 nM | – | 10 to 1000 nM | – | 1000 to 100000 nM | 1000 to 100000 nM | – | –
NCc1ccc(-c2cn(Cc3ccc4c(c3C(=O)O)OB(O)CC4)nn2)cc1 [Compound 63] | better or comparable | < 10 nM | < 1000 nM | 10 to 1000 nM | better or comparable | < 10 nM | better or comparable | 10 to 1000 nM | 10 to 1000 nM | < 1000 nM | 10 to 1000 nM | better or comparable | 10 to 1000 nM | < 1000 nM | 10 to 1000 nM | 10 to 1000 nM | < 1000 nM | –
NCc1cnn(Cc2ccc3c(c2C(=O)O)OB(O)[C@@H](Sc2nncs2)C3)c1 [Compound 68] | – | 1000 to 100000 nM | – | 1000 to 100000 nM | – | 1000 to 100000 nM | – | 1000 to 100000 nM | 10 to 1000 nM | – | 10 to 1000 nM | – | 1000 to 100000 nM | – | 1000 to 100000 nM | 1000 to 100000 nM | – | –
CC(N)c1cnn(Cc2ccc3c(c2C(=O)O)OB(O)CC3)c1 (stereo not shown) [Compound 39] | – | 10 to 1000 nM | – | 1000 to 100000 nM | – | < 10 nM | – | 10 to 1000 nM | 1000 to 100000 nM | – | 1000 to 100000 nM | – | 10 to 1000 nM | – | 1000 to 100000 nM | 1000 to 100000 nM | – | –
C[C@H]1Cc2ccc(Cn3ccnn3)c(C(=O)O)c2OB1O [Compound 29] | – | 10 to 1000 nM | < 1000 nM | 10 to 1000 nM | – | < 10 nM | – | 10 to 1000 nM | 10 to 1000 nM | < 1000 nM | 10 to 1000 nM | – | 10 to 1000 nM | < 1000 nM | 10 to 1000 nM | 10 to 1000 nM | < 1000 nM | –
O=C(O)c1c(Cn2ccnn2)ccc2c1OB(O)C1CC21 (stereo not shown) [Compound 28] | – | 10 to 1000 nM | < 1000 nM | 10 to 1000 nM | – | < 10 nM | – | 10 to 1000 nM | 1000 to 100000 nM | – | 10 to 1000 nM | – | 10 to 1000 nM | < 1000 nM | 10 to 1000 nM | 1000 to 100000 nM | – | –
NC1CN(Cc2cnn(Cc3ccc4c(c3C(=O)O)OB(O)CC4)c2)C1 [Compound 75] | – | 1000 to 100000 nM | – | 1000 to 100000 nM | – | 10 to 1000 nM | – | 1000 to 100000 nM | 1000 to 100000 nM | – | > 100000 nM | – | 1000 to 100000 nM | – | > 100000 nM | > 100000 nM | – | –
O=C(O)c1c(Cn2cc3c(n2)CNC3)ccc2c1OB(O)C=C2 [Compound 52] | – | 1000 to 100000 nM | – | 1000 to 100000 nM | – | 1000 to 100000 nM | – | 1000 to 100000 nM | 1000 to 100000 nM | – | 1000 to 100000 nM | – | 1000 to 100000 nM | – | 1000 to 100000 nM | 1000 to 100000 nM | – | –
N[C@H]1CC(=O)N(Cc2ccc3c(c2C(=O)O)OB(O)CC3)C1 [Compound 45] | – | 10 to 1000 nM | – | 1000 to 100000 nM | – | 10 to 1000 nM | – | 10 to 1000 nM | 1000 to 100000 nM | – | 1000 to 100000 nM | – | 10 to 1000 nM | – | 1000 to 100000 nM | 1000 to 100000 nM | – | –
NCCNc1cnn(Cc2ccc3c(c2C(=O)O)OB(O)CC3)c1 [Compound 33] | – | < 10 nM | – | 1000 to 100000 nM | – | < 10 nM | – | 10 to 1000 nM | 10 to 1000 nM | < 1000 nM | 10 to 1000 nM | – | 10 to 1000 nM | – | 1000 to 100000 nM | 10 to 1000 nM | < 1000 nM | –
N=C(N)NCc1cnn(Cc2ccc3c(c2C(=O)O)OB(O)CC3)c1 [Compound 37] | – | < 10 nM | – | 1000 to 100000 nM | – | < 10 nM | – | < 10 nM | 10 to 1000 nM | < 1000 nM | 10 to 1000 nM | – | < 10 nM | – | 1000 to 100000 nM | 10 to 1000 nM | < 1000 nM | –
N=C(N)Nc1cnn(Cc2ccc3c(c2C(=O)O)OB(O)CC3)c1 [Compound 38] | – | < 10 nM | – | 1000 to 100000 nM | – | 10 to 1000 nM | – | 10 to 1000 nM | 10 to 1000 nM | < 1000 nM | 10 to 1000 nM | – | 10 to 1000 nM | – | 1000 to 100000 nM | 10 to 1000 nM | < 1000 nM | –
NS(=O)(=O)c1ccc(-c2cn(Cc3ccc4c(c3C(=O)O)OB(O)CC4)nn2)cc1 [Compound 62] | better or comparable | < 10 nM | < 1000 nM | 10 to 1000 nM | better or comparable | < 10 nM | better or comparable | < 10 nM | 10 to 1000 nM | < 1000 nM | 10 to 1000 nM | better or comparable | 10 to 1000 nM | < 1000 nM | 10 to 1000 nM | 10 to 1000 nM | < 1000 nM | < 10 nM
CO[C@H]1Cc2ccc(Cn3cc(CN)cn3)c(C(=O)O)c2OB1O [Compound 69] | – | 1000 to 100000 nM | – | 1000 to 100000 nM | – | 1000 to 100000 nM | – | 1000 to 100000 nM | 10 to 1000 nM | – | 10 to 1000 nM | – | 1000 to 100000 nM | – | 1000 to 100000 nM | 1000 to 100000 nM | – | –
O=C(O)c1c(Cn2cc3c(n2)CNC3)ccc2c1OB(O)CC2 [Compound 56] | – | < 10 nM | < 1000 nM | 10 to 1000 nM | – | < 10 nM | – | 10 to 1000 nM | 10 to 1000 nM | < 1000 nM | 10 to 1000 nM | – | < 10 nM | – | 1000 to 100000 nM | 10 to 1000 nM | < 1000 nM | –
CC(C)(N)C#Cc1cnn(Cc2ccc3c(c2C(=O)O)OB(O)CC3)c1 [Compound 46] | – | 10 to 1000 nM | – | 1000 to 100000 nM | – | < 10 nM | – | < 10 nM | 1000 to 100000 nM | – | 10 to 1000 nM | – | 10 to 1000 nM | – | 1000 to 100000 nM | 10 to 1000 nM | – | –
O=C(O)c1c(Cn2cc(C3CNC3)nn2)ccc2c1OB(O)CC2 [Compound 47] | – | 10 to 1000 nM | – | 1000 to 100000 nM | – | 10 to 1000 nM | – | 10 to 1000 nM | 10 to 1000 nM | < 1000 nM | 1000 to 100000 nM | – | 10 to 1000 nM | – | 1000 to 100000 nM | 1000 to 100000 nM | < 1000 nM | –
NCCc1cn(Cc2ccc3c(c2C(=O)O)OB(O)CC3)nn1 [Compound 8] | – | 10 to 1000 nM | < 1000 nM | 1000 to 100000 nM | – | 10 to 1000 nM | – | 10 to 1000 nM | 1000 to 100000 nM | – | 10 to 1000 nM | – | 10 to 1000 nM | – | 1000 to 100000 nM | 10 to 1000 nM | – | –
CO[C@H]1Cc2ccc(Cn3ccnn3)c(C(=O)O)c2OB1O [Compound 30] | – | 10 to 1000 nM | < 1000 nM | 10 to 1000 nM | – | < 10 nM | – | 10 to 1000 nM | 10 to 1000 nM | < 1000 nM | 10 to 1000 nM | – | 10 to 1000 nM | < 1000 nM | 10 to 1000 nM | 10 to 1000 nM | < 1000 nM | –

— patent US20250205259A1, “CLASS OF 7-((FIVE-MEMBERED HETEROCYCLIC)METHYL)-8-CARBOXYLIC ACID-BENZO CYCLIC BORATE DERIVATIVES AND USES THEREOF” (priority 2022, published 2025)
